Assay results as given in patent US9649295B2, “Chemical inhibitors of soluble adenylyl cyclase (sAC)” (Cornell Research Foundation, Inc., priority 2004, dated 2017).
Entries after “also recorded” stand apart in the source; their conditions may differ. Each block holds one compound with its values, some of them ahead of it. Where no end group is shown, it is not given here.

Assays:
tmACs [1] = experiment: cAMP forming activity inside cells stimulated with forskolin; type: cell-based; conditions: read-out: in vivo IC50 tmAC (FSK)
sAC = molecular target: T1, sAC (Homo sapiens, UniProt Q96PN6); experiment: cAMP forming activity inside cells stably overexpressing sAC; type: cell-based; conditions: read-out: in vivo IC50 sAC (basal)
T1 construct: expressed in transfected cells
T1 sequence (Q96PN6 whole entry, species assumed): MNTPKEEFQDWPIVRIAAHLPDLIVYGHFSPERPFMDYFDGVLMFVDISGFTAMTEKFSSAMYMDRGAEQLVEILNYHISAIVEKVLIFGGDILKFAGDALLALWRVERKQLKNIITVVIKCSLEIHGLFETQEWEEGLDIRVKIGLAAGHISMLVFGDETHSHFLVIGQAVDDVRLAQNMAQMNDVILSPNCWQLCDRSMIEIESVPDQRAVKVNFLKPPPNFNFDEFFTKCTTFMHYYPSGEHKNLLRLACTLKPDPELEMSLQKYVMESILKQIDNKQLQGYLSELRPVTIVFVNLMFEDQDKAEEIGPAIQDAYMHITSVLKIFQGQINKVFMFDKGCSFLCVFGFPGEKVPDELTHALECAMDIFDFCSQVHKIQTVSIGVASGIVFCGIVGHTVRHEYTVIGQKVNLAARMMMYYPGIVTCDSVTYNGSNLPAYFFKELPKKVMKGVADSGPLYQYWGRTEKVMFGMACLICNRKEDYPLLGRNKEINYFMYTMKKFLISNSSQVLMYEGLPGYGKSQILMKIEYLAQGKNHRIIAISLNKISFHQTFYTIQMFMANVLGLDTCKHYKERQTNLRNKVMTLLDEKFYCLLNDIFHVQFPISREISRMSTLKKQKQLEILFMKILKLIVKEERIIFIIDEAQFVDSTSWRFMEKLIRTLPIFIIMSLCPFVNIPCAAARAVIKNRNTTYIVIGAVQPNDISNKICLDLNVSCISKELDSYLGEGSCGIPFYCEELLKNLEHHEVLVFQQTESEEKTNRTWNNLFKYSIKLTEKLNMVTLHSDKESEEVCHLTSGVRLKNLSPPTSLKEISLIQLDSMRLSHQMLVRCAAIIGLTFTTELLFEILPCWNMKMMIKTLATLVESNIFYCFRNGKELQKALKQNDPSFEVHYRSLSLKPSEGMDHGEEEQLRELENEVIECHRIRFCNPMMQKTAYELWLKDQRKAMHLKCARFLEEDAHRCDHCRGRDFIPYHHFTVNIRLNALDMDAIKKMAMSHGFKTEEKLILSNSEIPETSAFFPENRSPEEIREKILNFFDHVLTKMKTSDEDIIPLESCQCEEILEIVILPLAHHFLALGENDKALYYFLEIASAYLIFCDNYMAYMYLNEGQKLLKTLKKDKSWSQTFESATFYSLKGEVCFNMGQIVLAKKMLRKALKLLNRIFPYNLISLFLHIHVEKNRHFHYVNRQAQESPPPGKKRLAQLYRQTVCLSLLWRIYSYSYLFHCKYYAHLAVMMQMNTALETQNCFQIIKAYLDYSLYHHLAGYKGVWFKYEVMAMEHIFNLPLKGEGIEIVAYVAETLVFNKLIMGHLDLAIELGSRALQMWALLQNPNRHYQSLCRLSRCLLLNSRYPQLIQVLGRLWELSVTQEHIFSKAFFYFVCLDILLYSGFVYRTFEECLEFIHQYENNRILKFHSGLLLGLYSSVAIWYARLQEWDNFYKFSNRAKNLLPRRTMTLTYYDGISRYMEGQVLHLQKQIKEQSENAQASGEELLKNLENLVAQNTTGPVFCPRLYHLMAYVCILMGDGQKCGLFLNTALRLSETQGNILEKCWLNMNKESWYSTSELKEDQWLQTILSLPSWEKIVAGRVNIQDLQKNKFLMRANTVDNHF

[2] = molecular target: T2, purified sperm isoform of sAC protein (pure sAC) (Homo sapiens, UniProt Q96PN6); experiment: in vitro cyclase activity of purified sAC protein (Table 1); type: biochemical
T2 construct: generated against human 48-kD isoform of sAC (sACt) antigen; made in house
T2 sequence (Q96PN6 1-469 limits assumed): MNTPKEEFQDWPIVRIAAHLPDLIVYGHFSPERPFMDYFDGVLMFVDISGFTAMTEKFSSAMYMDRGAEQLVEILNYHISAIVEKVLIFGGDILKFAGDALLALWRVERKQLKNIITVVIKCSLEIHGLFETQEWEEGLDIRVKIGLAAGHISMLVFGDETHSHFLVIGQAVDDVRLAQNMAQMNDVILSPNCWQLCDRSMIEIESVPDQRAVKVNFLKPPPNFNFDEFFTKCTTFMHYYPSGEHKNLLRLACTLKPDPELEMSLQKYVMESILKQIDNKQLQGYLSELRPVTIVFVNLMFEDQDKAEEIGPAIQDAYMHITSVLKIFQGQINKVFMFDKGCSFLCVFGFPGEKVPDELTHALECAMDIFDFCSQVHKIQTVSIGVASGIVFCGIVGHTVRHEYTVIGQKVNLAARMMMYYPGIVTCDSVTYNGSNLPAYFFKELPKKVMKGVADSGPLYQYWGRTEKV

[3] = molecular target: T3, purified solubilized version of Type VII tmAC (sol.AC7) (Homo sapiens, UniProt P51828); experiment: in vitro cyclase activity of purified solubilized Type VII tmAC; type: biochemical; conditions: read-out: in vitro IC50 pure sol.AC7
T3 construct: a mixture of purified catalytic domains, C1 and C2, from Type VII tmAC; made in house
T3 sequence (P51828 279-406 limits assumed): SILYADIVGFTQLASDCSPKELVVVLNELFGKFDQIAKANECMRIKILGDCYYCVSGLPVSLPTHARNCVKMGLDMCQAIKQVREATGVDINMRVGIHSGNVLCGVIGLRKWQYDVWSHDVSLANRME
T3 sequence (P51828 879-1023 limits assumed): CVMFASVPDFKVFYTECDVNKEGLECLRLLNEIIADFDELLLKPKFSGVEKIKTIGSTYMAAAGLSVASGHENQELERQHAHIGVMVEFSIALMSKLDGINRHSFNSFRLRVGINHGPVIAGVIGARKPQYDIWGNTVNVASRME

[4] = molecular target: T4, Type II tmAC (tmAC in extracts) (Homo sapiens, UniProt Q08462); experiment: in vitro cyclase activity in extracts of cells overexpressing Type II tmAC; type: biochemical; conditions: unit inferred
T4 construct: expressed in transfected cells
T4 sequence (Q08462 whole entry): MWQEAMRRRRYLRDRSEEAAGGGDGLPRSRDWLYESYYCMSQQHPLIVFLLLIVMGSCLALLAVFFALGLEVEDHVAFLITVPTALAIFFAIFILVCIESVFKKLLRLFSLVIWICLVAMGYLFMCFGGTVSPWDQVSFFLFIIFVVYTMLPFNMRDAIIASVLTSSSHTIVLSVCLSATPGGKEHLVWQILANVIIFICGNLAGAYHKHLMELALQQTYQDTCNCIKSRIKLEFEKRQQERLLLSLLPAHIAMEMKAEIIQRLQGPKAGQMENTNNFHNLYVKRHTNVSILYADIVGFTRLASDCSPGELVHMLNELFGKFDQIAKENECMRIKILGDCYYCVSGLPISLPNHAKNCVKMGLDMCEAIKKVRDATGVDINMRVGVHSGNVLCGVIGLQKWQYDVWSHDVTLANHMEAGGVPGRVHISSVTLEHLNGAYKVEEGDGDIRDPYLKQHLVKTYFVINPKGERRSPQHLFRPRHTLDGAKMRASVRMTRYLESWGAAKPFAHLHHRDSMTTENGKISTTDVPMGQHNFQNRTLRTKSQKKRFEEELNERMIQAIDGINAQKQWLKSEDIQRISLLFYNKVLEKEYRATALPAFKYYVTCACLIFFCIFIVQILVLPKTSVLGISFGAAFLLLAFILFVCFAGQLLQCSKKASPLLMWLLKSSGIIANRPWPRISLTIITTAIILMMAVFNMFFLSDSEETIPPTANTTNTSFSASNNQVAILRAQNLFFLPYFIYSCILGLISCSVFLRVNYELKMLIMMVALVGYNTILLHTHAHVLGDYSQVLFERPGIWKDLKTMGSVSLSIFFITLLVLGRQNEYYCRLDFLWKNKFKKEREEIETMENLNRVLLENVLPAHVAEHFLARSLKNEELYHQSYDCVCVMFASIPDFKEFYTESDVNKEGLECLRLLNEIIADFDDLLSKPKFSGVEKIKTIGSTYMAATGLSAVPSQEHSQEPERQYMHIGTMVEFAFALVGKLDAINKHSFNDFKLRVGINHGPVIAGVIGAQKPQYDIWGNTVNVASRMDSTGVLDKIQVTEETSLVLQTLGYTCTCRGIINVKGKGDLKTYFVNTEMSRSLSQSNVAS

[5] = molecular target: T5, sperm sAC (sAC in extracts) (UniProt Q96PN6); experiment: in vitro cyclase activity in whole cell extracts from cells overexpressing sperm sAC cDNA; type: biochemical; conditions: unit inferred
T5 construct: whole cell extracts from cells overexpressing sperm sAC cDNA (sAC in extracts)

cAMP in INS-1E cells = experiment: intracellular cAMP in INS-1E cells; type: cell-based; conditions: for cAMP generation in low glucose: 2.5 mM glucose, 15 minutes, 10 nM glucagon; for effect on cAMP induced by high glucose: 16 mM glucose, 30 μM KH7, 30 μM KH7.15, 50 μM 2-hydroxyestradiol, 50 μM 2′5′ddAdo
Experimental: (§1) Briefly, cells (passage 140-150) were plated at 2.5×10^5 cells/well in a 24 well plate and permitted to recover for two days. Cells were glucose starved by incubation for 1 hour in the presence of 2.5 mM glucose KRB medium supplemented with 2 mM sodium bicarbonate, 10 mM Hepes, and 0.1% BSA. After washing, cells were incubated in KRB with either 2.5 mM or 16 mM glucose in the presence of either vehicle control (DMSO or MeOH) or indicated drug. After the indicated time, removed media was cleared of cell debris and secreted insulin was measured by Insulin ELISA kit (Linco Research, St. Charles, Mo., or ALPCO, Windham, N.H.). If cAMP was to be concomitantly measured, cells were pre-treated with IBMX for the final 10 minutes of the glucose starvation and IBMX was included in all subsequent incubations. For the washout experiment, subsequent to initial insulin determination, cells treated with KH7 were placed in fresh KRB (2.5 mM glucose) for an additional hour and insulin release was measured as above in the absence of any added drug. For transferrin recycling, loading of cells with I^125 transferrin was performed during hour incubation in 2.5 mM glucose KRB.

INS-1E cells [6] = experiment: insulin release in INS-1E cells; type: cell-based; conditions: for insulin release in low glucose: 2.5 mM glucose, 10 nM glucagon; for effect on glucose-stimulated insulin secretion (GSIS): 30 μM KH7, 30 μM KH7.15, 50 μM 2-hydroxyestradiol, 50 μM 2′5′ddAdo
Experimental: as §1

[7] = test system: CREB phosphorylation in isolated nuclei; experiment: CREB phosphorylation in isolated HeLa nuclei (P2), Western analysis; type: biochemical; conditions: for relative intensity of phospho-CREB band normalized to basal: basal 1 U, 1 mM 8-Br cAMP, 40 mM bicarbonate alone or plus 10 μM H-89 or 1 mM 8-Br-RpcAMPs
Experimental: The resuspended pellet and 60% OptiPrep iodixanol were mixed (30% OptiPrep final) and centrifuged at 10,000 g for 20 min. The supernatant was removed and the nuclei-enriched pellet (P2) was resuspended in TM-2 buffer without detergent.
Reactions were stopped by the addition of 20 μl of SDS sample buffer (CREB phosphorylation) or by being placed into a 100° C. heat block for 3 min (adenylyl cyclase).
For whole cell and isolated nuclei CREB phosphorylation assays, equal cell or nuclear equivalents were separated under reducing conditions using a 10% SDS-PAGE, transferred to a PVDF membrane, and probed for CREB (rabbit polyclonal antiserum; Chemicon, Temecula, Calif.) and phosphorylated CREB (rabbit polyclonal antiserum; Upstate Biotechnology, Temecula, Calif.). HRP-conjugated secondary antibodies were used, and bands were visualized using ECL. Image analysis software (model Fluorchem 8800; Alpha Innotech, San Leandro, Calif.) was used to quantitate Western results. Intensities of phospho-CREB bands were normalized to total CREB.

[8] = molecular target: T6, purified recombinant human sACt protein (Homo sapiens, UniProt Q96PN6); experiment: in vitro adenylyl cyclase assay on purified recombinant human sACt protein
T6 sequence (Q96PN6 1-469 limits assumed): T2 sequence (Q96PN6 1-469 limits assumed)
Experimental: (§2) In vitro adenylyl cyclase assays were performed on purified recombinant human sACt protein as previously described in Litvin et al., “Kinetic Properties of “Soluble” Adenylyl Cyclase.

tmACs [9] = experiment: adenylyl cyclase activity in forskolin stimulated INS-1E cell lysate; conditions: forskolin (10 μM) stimulated INS-1E
Experimental: as §2

primary mouse islets = experiment: insulin release from isolated mouse islets; type: cell-based; conditions: 16.7 mM glucose, 30 minutes, 30 μM KH7
Experimental: After several washes with Hank's Balanced Salt Solution, islets were hand-picked and 15-20 islets were distributed into each well of a 12 well plate to adhere overnight in RPMI-1640 media supplemented with 10 mM HEPES, 5.6 mM glucose, 10% FBS, 2 mM L-glutamine, 1 mM sodium pyruvate, and antibiotics.
Insulin release from isolated islets was performed in 12 well plates. Islets were preincubated in KRB (2.8 mM glucose) for 1 hour followed by incubation for 30 minutes in 2.8 mM glucose KRB in the presence of drug. The same wells were then incubated for an additional 30 minutes in 16.7 mM glucose KRB in the presence of the same drugs. Media was removed, cleared of cells, and insulin was measured.

INS-1E cells [10] = experiment: transferrin recycling in INS-1E cells; type: cell-based; conditions: 30 minutes, KH7 30 μM
Experimental: as §1

Plasmodium falciparum = Plasmodium falciparum viability, luciferase assay; type: cell-based
Experimental: . Plasmodium cultures were incubated in the indicated concentrations of KH7 or KH7.15 for 24 hours and viability assessed by luciferase assay (FIG. 16A). […].
Therefore, the effect of sAC inhibitors on P. falciparum viability was tested. […].

PfAC = experiment: adenylyl cyclase activity in whole cell extract of isolated parasites; type: biochemical, Plasmodium falciparum
[11] = test system: CREB phosphorylation in isolated nuclei; experiment: phospho-CREB immunocytochemistry of isolated nuclei; type: biochemical; conditions: 10 min; 40 mM sodium bicarbonate, 1 mM 8-Br cAMP, 10 μM forskolin
Experimental: Cell Signaling Technologies) overnight at 4° C. Staining was visualized by incubation with goat anti-rabbit Alexa Fluor 488 (Molecular Probes) for 1 h at room temperature, treated with DAPI for 5 min, and washed and mounted with gelvatol/DABCO (Sigma-Aldrich). Fluorescent images were recorded by a digital camera (Hamamatsu, Bridgewater, N.J.) connected to an inverted epifluorescent microscope (Nikon, Melville, N.Y.). Images were taken at the same exposure time and gain, and all photographic manipulations were performed equally. Phospho-CREB-positive nuclei were quantified in multiple fields from each stained slide by a blinded experimenter. […] Nuclei were also treated with DAPI to differentiate intact nuclei from membrane ghosts. DAPI-positive nuclei were scored for phosho-CREB immunofluorescence. Nuclei with detectable staining (FIG. 6A, NaHCO3) were considered positive for CREB phosphorylation, whereas nuclei with no detectable staining (FIG. 6A, Basal) were counted as negative. Multiple microscopic fields were photographed for each condition, and data was combined from three to five separate experiments.

IC50 (tmACs [1]): > 200 µM | IC50 (sAC): 30 µM | IC50 ([2]; unit inferred): ~30 µM
Compound: COc1ccc(Br)cc1/C=N/NC(=O)CSc1nc2ccccc2[nH]1 [KH7.05]

IC50 (tmACs [1]): > 500 µM | IC50 (sAC): > 500 µM | IC50 ([2]; μM): 23 µM | IC50 [3]: > 200 µM
Compound: CCCCOc1ccc(C2=N/C(=C\C(Br)=C\c3ccccc3)C(=O)O2)cc1 [KH1]

IC50 ([2]; unit inferred): 75 µM
Compound: CCn1c(SCC(=O)N/N=C/c2cc(Br)ccc2O)nc2ccccc21 [KH7.13]

IC50 ([2]; unit inferred): ~30 µM
Compound: O=C(CSc1nc2ccccc2[nH]1)N/N=C/c1c(F)cccc1Cl [KH7.06]

IC50 [4]: > 100 µM | IC50 [5]: > 100 µM | IC50 (tmACs [1]): > 500 µM | IC50 (sAC): > 500 µM | IC50 ([2]; μM): 8 µM | IC50 [3]: > 500 µM
Compound: Cc1ccc(C)c(N2C(=O)/C(=C/c3ccc(Cl)cc3)C=C2c2ccccc2)c1 [KH3]

Compound: GLP-1: hormone stimulating tmACs (HAEGTFTSDVSSYLEGQAAKEFIAWLVKGR; ends and bridges not checked; UniProt P01275 98-127, looked up) [reference compound]
cAMP generation in low glucose (cAMP in INS-1E cells): three fold increase in cAMP generation | insulin release in low glucose (INS-1E cells [6]; 15 minutes): no significant increase in insulin release

Compound: Nc1ncnc2c1ncn2[C@@H]1O[C@@H]2CO[P@@](O)(=S)O[C@H]2[C@H]1O [RpcAMPs]
relative intensity of phospho-CREB band normalized to basal [7]: 8 U | reduction of CREB phosphorylation induced by bicarbonate ([7]; isolated nuclei, 40 mM bicarbonate): 70%

Compound: C[C@H]1O[C@@H](n2cnc3c(N)ncnc32)C[C@@H]1O [2′5′ddAdo, 2′5′ dideoxyadenosine]
effect on sAC ([8]; bicarbonate/calcium stimulated pure sAC, concentrations up to 300 μM): did not significantly affect sAC; also recorded: inert towards sAC | effect on tmACs (tmACs [9]): potent inhibitor of tmACs | effect on cAMP induced by high glucose (cAMP in INS-1E cells): partially decreased glucose-induced cAMP generation

Compound: C[C@]12CC[C@@H]3c4cc(O)c(O)cc4CC[C@H]3[C@@H]1CC[C@@H]2O [2-hydroxyestradiol, reference compound]
effect on cAMP induced by high glucose (cAMP in INS-1E cells): blocked the cAMP induced by the presence of high glucose | effect on insulin release induced by high glucose in islets (primary mouse islets): inhibited insulin release induced by high glucose | effect on glucose-stimulated insulin secretion (GSIS) (INS-1E cells [6]; 16 mM glucose): completely inhibited GSIS | effect on transferrin recycling (INS-1E cells [10]): unaffected

Compound: CC(C)Cn1c(=O)n(C)c(=O)c2[nH]cnc21 [IBMX, reference compound]
restoration of GSIS in the presence of KH7 (INS-1E cells [6]; 0.5 mM IBMX, 30 μM KH7): did not restore GSIS in the presence of KH7 inhibition | enhancement of GSIS (INS-1E cells [6]; 0.5 mM IBMX, 16 mM glucose, 15 minutes): at least 2 fold

Compound: glucagon: hormone stimulating tmACs [reference compound]
cAMP generation in low glucose (cAMP in INS-1E cells): three fold increase in cAMP generation | insulin release in low glucose (INS-1E cells [6]; 15 minutes): no significant increase in insulin release

IC50 (tmACs [1]): > 200 µM | IC50 (sAC): 30 µM | IC50 ([2]; μM): 30 µM
Compound: O=C(CSc1nc2ccccc2[nH]1)N/N=C/c1cc(Br)ccc1O [KH7.07]

IC50 ([2]; unit inferred): 80 µM
Compound: Cc1ccsc1/C=N/NC(=O)CSc1nc2ccccc2n1Cc1ccccc1 [KH7.10]

IC50 [4]: > 100 µM | IC50 [5]: > 100 µM | IC50 (tmACs [1]): > 500 µM | IC50 (sAC): > 500 µM | IC50 ([2]; μM): 2 µM | IC50 [3]: > 400 µM
Compound: COc1ccc(/C=C2\C(=O)N(c3nc(-c4ccc(Cl)cc4)cs3)N=C2c2ccccc2)cc1OC [KH2]

IC50 [4]: > 100 µM | IC50 [5]: > 100 µM | IC50 (tmACs [1]): > 500 µM | IC50 (sAC): > 500 µM | IC50 ([2]; μM): 6 µM | IC50 [3]: > 27 µM
Compound: Cc1ccccc1N1C(=O)/C(=C/c2ccc(-c3ccc(Cl)c(Cl)c3)o2)C=C1c1ccccc1 [KH4]

Compound: COc1cc(/C=N/NC(=O)CSc2nc3ccccc3[nH]2)ccc1O [KH7.15]
effect on cyclase activity of purified sAC ([8]; bicarbonate (40 mM) and calcium (0.5 mM)): inert | effect on tmACs (tmACs [9]): inert | effect on cAMP induced by high glucose (cAMP in INS-1E cells): not | dose required to kill parasites (Plasmodium falciparum): ≥ 100 µM | lower affinity for killing P. falciparum relative to KH7 (Plasmodium falciparum): 10 fold | effect on glucose-stimulated insulin secretion (GSIS) (INS-1E cells [6]; 16 mM glucose): did not affect insulin secretion | dose required to inhibit PfAC activity (PfAC): ≥ 100 µM | lower affinity for inhibiting PfAC activity relative to KH7 (PfAC): 10 fold

Compound: Nc1ncnc2c1nc(Br)n2[C@@H]1O[C@@H]2COP(=O)(O)O[C@H]2[C@H]1O [8-Br-cAMP]
relative intensity of phospho-CREB band normalized to basal [7]: 30 U | increase in CREB phosphorylation ([7]; isolated nuclei, Western): 30 fold | percentage of phospho-CREB-positive nuclei relative to basal [11]: at least a twofold rise
